Source: US20250179047A1, “5-[7-(3,4-DIHYDRO-1H-ISOQUINOLINE-2-CARBONYL)-1,2,3,4 TETRAHYDROISOQUINOLIN-6-YL]-1H-PYRROLE-3-CARBOXAMIDE DERIVATIVES, PHARMACEUTICAL COMPOSITIONS CONTAINING THEM AND THEIR USES AS PRO-APOPTOTIC AGENTS” (LES LABORATOIRES SERVIER, priority 2022, published 2025)

Key:
KMS-12-PE Bcl-2 G101V = test: In vitro cytotoxicity CellTiter-Glo 48 h, KMS-12-PE Bcl-2 G101V; format: cell-based; conditions: for Ratio (G101V/WT): C50 KMS-12-PE Bcl-2 G101V over C50 KMS-12-PE Bcl-2 WT; for IC50: Homo sapiens, KMS-12-PE, 48 h, CellTiter-Glo, C50 = concentration needed to reach 50% of the cellular viability
Outline: (§1)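 Viability measured by CellTiter-Glo luminescence after 48 h compound exposure (11-point curve, 37 °C, 5% CO2). Cells: KMS-12-PE transduced with wild-type or G101V-mutant Bcl-2, FACS-sorted for TagRFP. Reported C50 = concentration reaching 50% cellular viability.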

BCL2 F104I = BCL2 F104I (Homo sapiens, UniProt P10415, F104I); test: TR-FRET competitive binding assay, BCL2 F104I; conditions: Ki determined from IC50, read-out: TR_FRET EKI_Bcl2 F104I
Outline: (§2)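 Ki derived from IC50 (11-point dilution, 520/495 nm emission ratio) for displacing a fluorescein-labelled PUMA peptide (2 or 20 nM). Target was 0.5 nM E. coli-expressed Halo-tagged BCL2 (1-207) or BCLXL (2-196), terbium-labelled on Halo. Incubation 2 h at 23°C in pH 7.5 Hepes with 150 mM NaCl and 5% DMSO.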

BCL2 D103Y = BCL2 D103Y (Homo sapiens, UniProt P10415, D103Y); test: TR-FRET competitive binding assay, BCL2 D103Y; conditions: Ki determined from IC50, read-out: TR_FRET EKI_Bcl2 D103Y
Outline: as §2

BCL2 D111A = BCL2 D111A (Homo sapiens, UniProt P10415, D111A); test: TR-FRET competitive binding assay, BCL2 D111A; conditions: Ki determined from IC50, read-out: TR_FRET EKI_Bcl2 D111A
Outline: as §2

BCL2 WT = BCL2 WT (Homo sapiens (Human), UniProt P10415); test: TR-FRET competitive binding assay, BCL2 WT; conditions: Ki determined from IC50, read-out: TR_FRET EKI_Bcl2 WT
Outline: as §2

BCL2 G101V [1] = test: TR-FRET competitive binding assay, BCL2 G101V; set-up: species or system human; conditions: ratio Ki BCL2 G101V / Ki BCL2 WT
Outline: as §2

BCL2 G101V [2] = target: BCL2 G101V (Homo sapiens, UniProt P10415, G101V); test: TR-FRET competitive binding assay, BCL2 G101V; conditions: BCL2 G101V; Ki determined from IC50; read-out: TR_FRET EKI_Bcl2 G101V
Outline: as §2

KMS-12-PE Bcl-2 WT = test: In vitro cytotoxicity CellTiter-Glo 48 h, KMS-12-PE Bcl-2 WT; format: cell-based; conditions: Homo sapiens, KMS-12-PE, C50 = concentration needed to reach 50% of the cellular viability
Outline: as §1

BCLXL WT = BCLXL WT (Homo sapiens (Human), UniProt Q07817); test: TR-FRET competitive binding assay, BCLXL WT; conditions: for Ki: BCLXL WT, Ki determined from IC50, read-out: TR_FRET EKI BclxL; for TR_FRET EKI BCLxL/WT selectivty ratio: ratio Ki BCLxL / Ki BCL2 WT
Sequence of BCLXL WT (Q07817 other isoform, or with tags, fused parts or gaps): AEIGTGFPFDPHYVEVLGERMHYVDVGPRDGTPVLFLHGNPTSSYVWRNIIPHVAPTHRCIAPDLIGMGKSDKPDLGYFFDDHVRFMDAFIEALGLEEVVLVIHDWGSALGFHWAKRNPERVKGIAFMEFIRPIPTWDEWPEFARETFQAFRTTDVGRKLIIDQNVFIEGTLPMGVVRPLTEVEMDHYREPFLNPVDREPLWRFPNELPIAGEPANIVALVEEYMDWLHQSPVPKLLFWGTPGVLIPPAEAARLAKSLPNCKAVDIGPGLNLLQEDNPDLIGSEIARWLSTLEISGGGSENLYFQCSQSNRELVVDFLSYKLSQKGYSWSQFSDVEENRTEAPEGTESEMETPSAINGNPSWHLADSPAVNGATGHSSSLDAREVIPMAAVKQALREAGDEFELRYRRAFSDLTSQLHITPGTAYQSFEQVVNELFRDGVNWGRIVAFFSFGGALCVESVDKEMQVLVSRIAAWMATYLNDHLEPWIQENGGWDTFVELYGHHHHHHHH
Outline: as §2

CYP3A4 = CYP3A4 (Homo sapiens (Human), UniProt P08684); test: CYP3A4 inhibition determination in hepatic human microsomes; format: in vitro ADME; conditions: LC/MS-MS of specific metabolite
Sequence of CYP3A4 (P08684 whole entry): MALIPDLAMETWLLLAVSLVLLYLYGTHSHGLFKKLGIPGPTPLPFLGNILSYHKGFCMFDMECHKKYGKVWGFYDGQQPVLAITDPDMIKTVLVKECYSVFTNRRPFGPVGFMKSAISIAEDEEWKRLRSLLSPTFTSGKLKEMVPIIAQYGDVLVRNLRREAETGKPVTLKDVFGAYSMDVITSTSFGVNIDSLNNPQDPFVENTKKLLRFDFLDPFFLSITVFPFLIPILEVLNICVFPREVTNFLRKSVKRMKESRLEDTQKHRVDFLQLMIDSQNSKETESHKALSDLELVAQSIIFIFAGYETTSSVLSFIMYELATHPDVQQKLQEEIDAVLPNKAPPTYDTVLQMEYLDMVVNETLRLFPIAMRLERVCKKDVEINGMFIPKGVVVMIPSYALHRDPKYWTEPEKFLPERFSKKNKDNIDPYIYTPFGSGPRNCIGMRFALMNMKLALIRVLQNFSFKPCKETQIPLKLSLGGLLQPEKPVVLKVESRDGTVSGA
Description: The inhibitory potential was determined on CYP3 Å4 enzyme using hepatic human microsomes. A range of concentrations (adapted based on the solubility) of the tested compound were incubated in presence of a substrate having a specific metabolite of CYP3 Å4 enzyme.
Then, the formation of the metabolite was quantified using LC/MS-MS analysis and a curve corresponding to the concentration of the metabolite in function of the concentration of the test compound allowed to the calculation of the IC50 value.

SMILES	Ratio (G101V/WT) (KMS-12-PE Bcl-2 G101V)	IC50 (KMS-12-PE Bcl-2 G101V)	Ki (BCL2 F104I)	Ki (BCL2 D103Y)	Ki (BCL2 D111A)	Ki (BCL2 WT)	TR_FRET EKI G101V/WT selectivty ratio (BCL2 G101V [1])	Ki (BCL2 G101V [2])	IC50 (KMS-12-PE Bcl-2 WT)	Ki (BCLXL WT)	TR_FRET EKI BCLxL/WT selectivty ratio (BCLXL WT)	IC50 (CYP3A4)
Cc1c(N(C(=O)c2cc(-c3cc4c(cc3C(=O)N3Cc5ccccc5C[C@H]3CN(C)C(C)C)CN(C(=O)Cc3ccc(OCCN5CCOCC5)cc3F)CC4)n(C)c2C)c2ccc(O)cc2)cc(C#N)n1C [Example 91, N-(5-cyano-1,2-dimethyl-1H-pyrrol-3-yl)-5-[2-(2-{2-fluoro-4-[2-(morpholin-4-yl)ethoxy]phenyl}acetyl)-7-[(3S)-3-{[methyl(propan-2-yl)amino]methyl}-1,2,3,4-tetrahydroisoquinoline-2-carbonyl]-1,2,3,4-tetrahydroisoquinolin-6-yl]-N-(4-hydroxyphenyl)-1,2-dimethyl-1H-pyrrole-3-carboxamide]	5.96	0.0498 µM	0.25 nM	0.17 nM	0.08 nM	0.04 nM	6.8	0.3 nM	0.0084 µM	2.4 nM	60.0	18000 nM
Cc1c(C(=O)N(c2ccc(O)cc2)c2cc(C#N)n(C(F)F)c2C)cc(-c2cc3c(cc2C(=O)N2Cc4ccccc4C[C@H]2CN2CCCC2)CN(C(=O)Cc2ccc(OCCN4CCOCC4)cc2F)CC3)n1C [Example 110]	5.02	0.0512 µM	0.15 nM	0.11 nM	0.09 nM	0.04 nM	6.3	0.3 nM	0.0102 µM	4.1 nM	102.5	> 5000 nM
